{"source": "patent US20190234936A1", "about": "(priority 2016, published 2019)", "tested_on": "human neutrophils", "assay_type": "cell-based"}
{"compound": "CCCCCCCCCCCCCC(=O)O[C@@H]1[C@@H](C)[C@@]2(O)[C@@H](C=C(CO)C[C@]3(O)C(=O)C(C)=C[C@@H]23)[C@@H]2C(C)(C)[C@]12OC(C)=O", "note": "[PMA, phorbol 12-myristate 13-acetate]", "values": [{"measurement": "NET formation (DNA staining)", "value": "abundant lattices of extracellular NET-DNA filaments"}]}
